Assay results: patent publication US6514978B2, “Thromboresistant materials incorporating pyrazinone protease inhibitors” (3-Dimensional Pharmaceuticals, Inc., priority 1998, dated 2003)
Where a name gives a salt, the structure may show the parent alone.

Molecular target: T1, human α-thrombin (Homo sapiens, UniProt P00734)
T1 construct: Purified human α-thrombin; purchased Enzyme Research Laboratories (South Bend, Ind.)
Assay: In vitro inhibition of purified enzymes: Ki determination, thrombin (hydrolysis of N-succinyl-Ala-Ala-Pro-Arg-p-nitroanilide)
Type: biochemical
Settings: purified human α-thrombin 0.5 nM, 50 mM HEPES, 200 mM NaCl, pH 7.5, 37° C., 4.3% DMSO
Text: Reagents: All buffer salts were obtained from Sigma Chemical Company (St. Louis, Mo.), and were of the highest purity avalable. The enzyme substrates, N-benzoyl-Phe—Val—Arg-p-nitroanilide (Sigma B7632), N-benzoyl-Ile—Glu—Gly—Arg-p-nitroanilide hydrochloride (Sigma B2291), N-p-Tosyl-Gly—Pro—Lys-p-nitroanilide (Sigma T6140), N-succinyl-Ala—Ala—Pro—Phe-p-nitroanilide (Sigma S7388) and N-CBZ-Val—Gly—Arg-p-nitroanilide (Sigma C7271) were obtained from Sigma.
Human α-thrombin, human factor Xa and human plasmin were obtained from Enzyme Research Laboratories (South Bend, Ind.). Bovine α-chymotrypsin (Sigma C4129), bovine trypsin (Sigma T8642) and human kidney cell urokinase (Sigma U5004) were obtained from Sigma. Human leukocyte elastase was obtained from Elastin Products (Pacific, Mo.).
Ki Determinations: All assays are based on the ability of the test compound to inhibit the enzyme catalyzed hydrolysis of a peptide-p-nitroanililide substrate. […] The final concentrations for each of the substrates is listed below. […] Dilutions are prepared in DMSO yielding 8 final concentrations encompassing a 200 fold concentration range. Enzyme solutions are prepared at the concentrations listed below in assay buffer.
Data corresponding to less than 10% of the total substrate hydrolysis were used in the calculations. The ratio of the velocity (rate of change in absorbance as a function of time) for a sample containing no test compound is divided by the velocity of a sample containing test compound, and is plotted as a function of test compound concentration. The data are fit to a linear regression, and the value of the slope of the line calculated. The inverse of the slope is the experimentally determined K value.
Thrombin: Thrombin activity was assessed as the ability to hydrolyze the substrate N-succinyl-Ala—Ala—Pro—Arg-p-nitroanilide. […] Final DMSO concentration was 4.3%. […] Final reagent concentrations were: [thrombin]=0.5 nM, [substrate N-succinyl-Ala—Ala—Pro—Arg-p-nitroanilide]=32 mM.

| Ki [nM] | Compound |
| --- | --- |
| 46 | Cc1cnc(NCCc2ccccc2)c(=O)n1CC(=O)NCCONC(=N)N [Example 1, 1-{N-[2-(amidinoaminooxy)ethyl]amino}carbonylmethyl-6-methyl-3-(phenethylamino)-pyrazinone trifluoroacetate] |
| 330 | Cc1c(Cl)nc(NCCc2ccccc2)c(=O)n1CC(=O)NCCONC(=N)N [Example 2, 1-{N-[2-(amidinoaminooxy)ethyl]amino}carbonylmethyl-5-chloro-6-methyl-3-(phenethylamino)-pyrazinone trifluoroacetate] |
| 85 | Cc1c(Cl)nc(NCC(c2ccccc2)c2ccccc2)c(=O)n1CC(=O)NCCONC(=N)N [Example 4, 1-{N-[2-(amidinoaminooxy)ethyl]amino}carbonylmethyl-5-chloro-6-methyl-3-(2,2-diphenylethylamino)-pyrazinone trifluoroacetate] |
| 20 | Cc1ccc(CCNc2ncc(C)n(CC(=O)NCCONC(=N)N)c2=O)cc1 [Example 5, 1-{N-[2-(amidinoaminooxy)ethyl]amino}carbonylmethyl-6-methyl-3-(4-methylphenethylamino)-pyrazinone trifluoroacetate] |
